Experimental data from patent publication US6015838A, “Aqueous film-forming foam compositions” (3M Innovative Properties Company, priority 1996, dated 2000).
Entries after “also recorded” stand apart in the source; their conditions may differ.

Columns and labels:
[1] = Thermogravimetric analysis of neat perfluorocarboxylate salts; format: physicochemical; conditions: neat salt; for onset temperature of decomposition / temperature for 50% loss / temperature for 90% loss: 10° C./min, nitrogen
From the text: Thermal degradation measurements were made on a series of neat perfluorocarboxylate salts, including several ax-branched open chain structures (Examples N2-N9), a primarily linear open chain structure (Example N10--Fluorad™ FC-143 Fluorochemical Surfactant, commercially available from 3M Company, St. Paul, Minn.), and a closed chain (i.e., cyclic) structure (Example N11--made by the electrochemical fluorination of benzoic acid and hydrolysis in the presence of KOH, as described in U.S. Pat. No. 2,567,011 (Diesslin et al.)).
The perfluorocarboxylate salts were tested using a Perkin-Elmer TGA 7 thermogravimetric analysis apparatus and a salt sample size of approximately 5 mg, a heating rate of 10° C./min, and a nitrogen gas flow rate of 40-45 mL/min. Using the TGA 7 software, the following temperatures were recorded: (1) the onset temperature of decomposition, (2) the temperature at which 50% of the sample weight was lost, and (3) the temperature at which 90% of the sample weight was lost.

[2] = Surface tension and critical micelle concentration (CMC) of aqueous surfactant solutions; format: physicochemical; conditions: Table 5; deionized water, at CMC
From the text: Critical Micelle Concentration (CMC): The critical micelle concentration is defined as the concentration at which further surface tension is no longer lowered with increasing levels of surfactant. […] Surface tension is then plotted vs. log concentration and the data points are connected. The resulting curve has a nearly horizontal flat portion at concentrations above the CMC and has a negative steep slope at concentrations below the CMC. The CMC is defined as the lowest surfactant concentration in the horizontal flat portion of the curve.
(§1) Then the critical micelle concentration (CMC) was determined for each surfactant.
as §1

[3] = Stability of esters to concentrated aqueous ammonium hydroxide; format: physicochemical; conditions: stirred 2 days (comparable conditions)
From the text: The acrylate and methacrylate esters from Examples D1-D11 were fully recoverable with essentially no degradation after being stirred with concentrated aqueous ammonium hydroxide for a period of 2 days.

[4] = Thermal degradation in aqueous media; format: physicochemical
Experimental: The thermal degradation of an aqueous a-branched perfluoroalkylcarbonyl fluoride and the characterization of the products produced from the degradation were carried out using the following procedure. 8 g of C7 F15 CF(CF3)COF (made as in Example A4) was dispersed in deionized water and was refluxed for 2 hours. 5.7 g of volatile degradation products were then collected by azeotropic distillation using a Dean-Stark apparatus.
The thermal degradation of C7 F15 CF(CF3)COF (from Example A4) dispersed in water was also carried out by heating the aqueous mixture for several hours at approximately 80° C.

[5] = tested on: rats; assay: Acute LD50, one-time feeding study of rats; format: in vivo, rat
Experimental: Acute LD50 measurements for a one-time feeding study of rats were determined over a 21 day period for both the a-branched perfluorocarboxylate salt, C7 F15 CF(CF3)COO^- NH4^+, and its straight chain isomer, CF3 (CF2)8 COO^- NH4^+.

[6] = literature; cited from earlier work
[7] = Storage of 5% aqueous solution at room temperature; format: physicochemical
Experimental: The α-branched open chain ammonium salt compounds from Examples N3-N6 were dissolved in deionized water at a concentration of 5% by weight (0.5 g ammonium salt in 10 mL water) and were stored at room temperature.

[8] = tested on: rats; assay: Monitoring of volatile degradation products exhaled by a dosed rat (uptake desiccator jar chamber); format: in vivo
Experimental: Additional biological testing of C7F15 CF(CF3)COO^- NH4^+ in rats was conducted using the following test apparatus. An uptake desiccator jar chamber was designed with top and bottom portions, the top portion equipped with an inlet port, an outlet port, oxygen monitor and pressure gage. An oxygen gas tank supplied oxygen into the inlet port, and the oxygen level in the chamber was maintained at a normal ambient level as measured by the oxygen monitor and pressure gage. The outlet port was connected in series with a carbon dioxide scrubber and particulate filter, which in turn was connected to a loop containing a stainless steel bellows pump operating at about 2 L/min. Most of the gas in the loop was recycled into the inlet port, but about 100 mL/min was directed through a secondary loop to a gas chromatograph equipped with a 0.5 mL gas sampling loop.
A rat dosed at 500 mg/kg was placed in the bottom portion of the chamber, the top portion was attached, and the assembled chamber was placed in an ice-filled pan to allow for the condensation of water. The oxygen flow was started, and the exhaust gases were monitored for the presence of CF3 CF=CF(C6 F13) and C7 F15 CFHCF3, aqueous degradation products of C7 F15 CF(CF3)COOH, using known standards of this olefin and hydride in the gas chromatograph. […] After 24 minutes, one slight chromatographic peak was noted, corresponding to the monohydride. After 92 minutes, the peak became noticeably larger and a second peak formed, corresponding to the olefin.

[9] = Emulsion polymerization of hexafluoropropylene and vinylidene fluoride with surfactant as emulsifier; conditions: 3500 ppm emulsifier, 78° C.
From the text: The following procedure was used to evaluate C7 F15 CF(CF3)COO^- NH4^+ (from Ex. M1) as an emulsifier to copolymerize hexafluoropropylene (HFP) and vinylidene fluoride.
A 1 gallon, vertically agitated stainless steel reactor with pressure and temperature controls was evacuated and twice purged with nitrogen. Using an isolated vacuum, a solution comprised of 2 g of ammonium persulfate (initiator) and 6 g of dipotassium phosphate dissolved in 2800 g of deionized water was introduced into the reactor. The remaining vacuum on the reactor was vented with nitrogen, and the solution was degassed twice under agitation using alternate vacuum and nitrogen purges. […]
The resulting latex polymer was drained from the reactor, and percent solids of the latex was determined to be 25% by weight as measured by drying 10 g of latex in a forced air oven for 16 hours at 105° C.
The reactor body was separated from the reactor head, and a visual inspection of the reactor was made to determine the amount of coagulated polymer in the reactor (the amount should be minimal in a good polymerization reaction). A qualitative rating was assessed, ranging from "none" to "little" to "some." […]
Particle size in the latex was determined using […] on a Coulter sub-micron particle size analyzer. […]

## O=C(O)C(F)(C(F)(F)F)C(F)(F)C(F)(F)C(F)(F)C(F)(F)C(F)(F)C(F)(F)C(F)(F)C(F)(F)C(F)(F)C(F)(F)F (centres unmarked) [Example M18, C10 F21 CF(CF3)COO^- H4 N^+]
[1]
  onset temperature of decomposition: 164 °C
  temperature for 50% loss: 181 °C
  temperature for 90% loss: 188 °C
[2]
  Surf. Tens. (surface tension at the CMC): 14.8 dynes/cm

## O=C(O)C(F)(C(F)(F)F)C(F)(F)C(F)(F)C(F)(F)C(F)(F)C(F)(F)C(F)(F)F (centres unmarked) [Example M16, C6 F13 CF(CF3)COO^- H4 N^+]
[1]
  onset temperature of decomposition: 165 °C
  temperature for 50% loss: 179 °C
  temperature for 90% loss: 193 °C
[2]
  Surf. Tens. (surface tension at the CMC): 17.9 dynes/cm

## C=CC(=O)OCCOC(=O)C(F)(F)C(F)(F)C(F)(F)C(F)(F)C(F)(F)C(F)(F)C(F)(F)F [C7 F15 COOCH2 CH2 OCOCH=CH2]
[3]
  hydrolytic stability in concentrated aqueous ammonium hydroxide: readily hydrolyzed

## O=C(O)C(F)(C(F)(F)F)C(F)(F)C(F)(F)C(F)(F)C(F)(F)C(F)(F)F (centres unmarked) [Example M15, C5 F11 CF(CF3)COO^- H4 N^+]
[1]; listed as N2
  onset temperature of decomposition: 166 °C
  temperature for 50% loss: 178 °C
  temperature for 90% loss: 188 °C
[2]
  Surf. Tens. (surface tension at the CMC): 22.1 dynes/cm

## O=C(F)C(F)(C(F)(F)F)C(F)(F)C(F)(F)C(F)(F)C(F)(F)C(F)(F)C(F)(F)C(F)(F)F (centres unmarked) [Example A1, C7 F15 CF(CF3)COF]
[4]; aqueous mixture heated several hours at approximately 80° C.
  degradation products (in words): The same volatile products were formed
[4]; dispersed in deionized water, refluxed 2 hours, C6 F13 CF=CFCF3
  olefin in degradation products: 15%
[4]; dispersed in deionized water, refluxed 2 hours, C7 F15 CFHCF3
  monohydride in degradation products: 85%
[4]; from 8 g, refluxed 2 hours in deionized water
  volatile degradation products collected: 5.7 g

## O=C(O)C(F)(C(F)(F)F)C(F)(F)C(F)(F)C(F)(F)C(F)(F)C(F)(F)F (centres unmarked) [Example M21, C5 F11 CF(CF3)COO^- K^+]
[1]; listed as N9
  onset temperature of decomposition: 167 °C
  temperature for 50% loss: 178 °C
[1]; stopped at 85% weight loss as remaining salt, KF, is not volatile
  temperature for 90% loss (stopped at 85% weight loss): 188 °C
[2]
  Surf. Tens. (surface tension at the CMC): 22.5 dynes/cm

## O=C(O)C(F)(C(F)(F)F)C(F)(F)C(F)(F)C(F)(F)C(F)(F)C(F)(F)F (centres unmarked) [Example M28, C5 F11 CF(CF3)COO^- Na^+]
[1]; listed as N8
  onset temperature of decomposition: 236 °C
  temperature for 50% loss: 250 °C
  temperature for 90% loss: 263 °C

## O=C(O)C(F)(F)C(F)(F)C(F)(F)C(F)(F)C(F)(F)C(F)(F)C(F)(F)C(F)(F)C(F)(F)F [C9 F19 COO^- NH4^+, CF3 (CF2)8 COO^- NH4^+, reference compound]
[5]; LD50 comparison
  toxicity relative to the α-branched isomer: ca. 10 times
[5]; one-time feeding, rats
  acute toxicity (in words): moderately toxic
  wasting syndrome: Wasting syndrome was observed
[6]
  toxicity (in words): moderately toxic

## O=C(O)C(F)(F)C(F)(F)C(F)(F)C(F)(F)C(F)(F)C(F)(F)C(F)(F)F [FC-143, C7 F15 COO^- H4 N^+]
[1]
  onset temperature of decomposition: 173 °C
  temperature for 50% loss: 188 °C
  temperature for 90% loss: 202 °C
[2]
  Surf. Tens. (surface tension at the CMC): 21.5 dynes/cm
[7]
  degradation over 1 year (in words): no signs of degradation

## O=C(O)C1(F)C(F)(F)C(F)(F)C(F)(F)C(F)(F)C1(F)F [reference compound]
[1]
  onset temperature of decomposition: 100 °C
  temperature for 50% loss: 110 °C
  temperature for 90% loss: 120 °C

## O=C(O)C(F)(C(F)(F)F)C(F)(F)C(F)(F)C(F)(F)C(F)(F)C(F)(F)C(F)(F)C(F)(F)C(F)(F)F (centres unmarked) [Example M17, C8 F17 CF(CF3)COO^- H4 N^+]
[1]
  onset temperature of decomposition: 142 °C
  temperature for 50% loss: 162 °C
  temperature for 90% loss: 184 °C
[2]
  Surf. Tens. (surface tension at the CMC): 14.7 dynes/cm

## O=C(O)C(F)(C(F)(F)F)C(F)(F)C(F)(F)C(F)(F)C(F)(F)C(F)(F)C(F)(F)C(F)(F)F (centres unmarked) [Example M1, C7 F15 CF(CF3)COOH]
[4]; aqueous solution, carried out in a similar way
  degradation products (in words): the same monohydride and olefin

## O=C(O)C(F)(C(F)(F)C(F)(F)F)C(F)(F)C(F)(F)C(F)(F)C(F)(F)C(F)(F)C(F)(F)F (centres unmarked) [Example M19, C6 F13 CF(C2 F5)COO^- H4 N^+]
[1]
  onset temperature of decomposition: 153 °C
  temperature for 50% loss: 171 °C
  temperature for 90% loss: 188 °C

## O=C(O)C(F)(C(F)(F)F)C(F)(F)C(F)(F)C(F)(F)C(F)(F)C(F)(F)C(F)(F)C(F)(F)F (centres unmarked) [Example M14, C7 F15 CF(CF3)COO^- H4 N^+]
[8]; rat dosed at 500 mg/kg
  post-exposure toxicity (death) or wasting syndrome: no evidence of toxicity (death) or evidence of wasting syndrome
  time at which monohydride peak was noted in exhaust gases: 24 min
  time at which second peak (olefin) formed in exhaust gases: 92 min
[8]; rat dosed at 500 mg/kg, 217 minutes
  monohydride and olefin peaks in exhaust gases after 217 minutes: both peaks became significantly larger
[8]; rat dosed at 500 mg/kg, initially
  olefin or hydride in exhaust gases, initially: no olefin or hydride were detected
[8]; rat, in words
  metabolism and elimination: metabolized by the rat to volatile metabolites which were eliminated from the rat via transpiration
[5]; one-time feeding, rats
  time after which rats began regaining weight: 3 days
  time of deaths from toxic doses: 2 to 3 days
  wasting syndrome: No wasting syndrome was noted
[5]; one-time feeding, rats, listed as C7 F15 CF(CF3)COO^- NH4^+
  acute toxicity (in words): relatively low toxicity; also recorded: only slightly toxic
[1]
  onset temperature of decomposition: 151 °C
  temperature for 50% loss: 163 °C
  temperature for 90% loss: 174 °C
[2]
  Surf. Tens. (surface tension at the CMC): 16.5 dynes/cm
[9]
  Latex Stability: 0
